Laboratory results from patent publication US11672792B2, “Topical formulations comprising montelukast and combinations with mussel adhesive proteins” (ENLITISA (SHANGHAI) PHARMACEUTICAL CO., LTD, priority 2017, dated 2023).

Legend:
[1] = tested on: carrageenan-induced acute inflammation in subcutaneous air pouch; assay: Air Pouch Model: Topical Administration Versus Oral Administration (Example 4); details: 200 μg/mouse, Mon-O intragastric; for Exudate volume / Pouch Wall Weight: others injected into pouch; for Activity score / Edema Score / IFN-γ in exudate (ELISA) / IL-6 in exudate (ELISA) / Inflammation score / Leukocyte count in exudate / Sum (of histology scores) / TNF-α in exudate (ELISA): others into pouch
[2] = tested on: carrageenan-induced acute inflammation in subcutaneous air pouch; assay: Air Pouch Model I (Example 1); format: in vivo, C57BL/6 mice; set-up: Activity score / Edema Score / Sum (of histology scores) / Fibroplastic proliferation score / Inflammation score: scale not given here; details: MAP 1.5 mg, Mon 200 μg; for IFN-γ in exudate (ELISA) / IL-6 in exudate (ELISA) / IL-10 in exudate (ELISA) / TNF-α in exudate (ELISA) / Activity score / Edema Score / Fibroplastic proliferation score / Inflammation score / Sum (of histology scores): dexamethasone 200 μg; for Leukocyte count in exudate / Lymphocyte count in exudate / Monocyte count in exudate / Neutrophil count in exudate / Exudate volume / Pouch Wall Weight: doses/mouse: dexamethasone 200 μg; for Exudate volume / Pouch Wall Weight: 24 h after carrageenan; for Activity score / Edema Score / Fibroplastic proliferation score / Inflammation score / Sum (of histology scores): pouch wall histology
Method: Healthy adult male C57BL/6 mice weighing between 20 and 30 g were supplied by Changzhou Cvens Experimental Animal Co. Ltd (Changzhou, Jiangsu Province, China). Prior to any experiments being conducted, mice were housed under standardized conditions (at a constant temperature or 22 t 2° C., with alternating 12 hour periods of light and darkness), and were fed on a standard mouse diet with water, for about a week.
General anesthesia was induced using intraperitoneal 3% chloral hydrate (Sinopharm Chemical Reagent Co., Ltd., Shanghai, China); 1 mL/10 g of body weight). The hair of the entire dorsum was shaved and depilated 1 day before sterile air injection.
Air pouches were produced by subcutaneous injection of sterile air (5 mL) into the intrascapular area of the mice. After three days, another injection of air (3 mL) was performed to maintain the pouches. In order to induce acute inflammation, three days after this final injection, animals received an injection of sterile carrageenan solution (CP Kelco, Taixing, Jiangsu Province, China; 1%, 0.5 mL; produced by adding 0.1 g of carrageenan powder into a beaker containing 10 mL of 0.9% saline solution and stirring). Mice were pre-treated with test samples or vehicle 1 hour before and 23 hours after the carrageenan injection into the subcutaneous air pouch. Animals were sacrificed 24 hours after the carrageenan injection.
Skin biopsies were taken from the air pouches. A part of the biopsy was fixed in formalin (produced by adding ultra pure water to 50 mL of a 40% formaldehyde solution (Nanchang Rain Dew Experimental Equipment Co., Ltd., Nanchang, […] Provence, China) up to a total volume of 500 mL) and analyzed by histological embedding in paraffin wax, sectioning and staining.
The cavity was washed with 4 mL of sterile phosphate buffer solution (pH 7.4; prepared by dissolving 4 g of NaCl, 0.1 g of KCl, 1.749 g of Na2HPO4.12H2O and 0.1 g of KH2PO4 in ultrapure water, adjusting the pH to 7.4 with HCl and diluting with water to a total volume of 500 mL).
Exudates were collected and volumes were quantified. The total number of cells was determined with a haematocytometer (ADVIA 2120 Hematology System, Siemens Healthineers).
In Table 1, MAP is a Mefp-1 solution, which is was prepared as follows. Blue mussels were harvested in the coastal area of Shandong Province, China. Mussel feet were collected, cut into small pieces and homogenized in an extraction buffer comprising 5% acetic acid in 4 mol/L of aqueous urea. The crude extracts were collected after centrifuging and then purified by liquid chromatography. […] The solutions that were employed below were prepared by adding saline solution to this semi-finished product to obtain a concentration as described in Table 1.

[3] = tested on: carrageenan-induced acute inflammation in subcutaneous air pouch; assay: Air Pouch Model: Combination of Montelukast (Example 5); format: in vivo, mice; details: MAP 1.5 mg, Mon 200 μg; for Activity score / Edema Score / Fibroblast proliferation score / IFN-γ in exudate (ELISA) / IL-6 in exudate (ELISA) / IL-10 in exudate (ELISA) / Inflammation score / Leukocyte count in exudate / Lymphocyte count in exudate / Monocyte count in exudate / Neutrophil count in exudate / Sum (of histology scores) / TNF-α in exudate (ELISA): dexamethasone 200 μg; for Exudate volume / Pouch Wall Weight: doses/mouse: dexamethasone 200 μg

C[C@@H]1C[C@H]2[C@@H]3CCC4=CC(=O)C=C[C@]4(C)[C@@]3(F)[C@@H](O)C[C@]2(C)[C@@]1(O)C(=O)CO [Dexamethasone, dexamethasone]
Exudate volume [1]: 3.3 ± 0.15 mL
Pouch Wall Weight [1]: 0.63 ± 0.09 g
Activity score [1]: 0.67
Edema Score [1]: 1.67
IFN-γ in exudate (ELISA) [1]: 388.83 ± 130.02
IL-6 in exudate (ELISA) [1]: 428.05 ± 267.27
Inflammation score [1]: 1.83
Leukocyte count in exudate [1]: 3.49e+06 mL⁻¹
Sum (of histology scores) [1]: 4.17
TNF-α in exudate (ELISA) [1]: 65.08 ± 7.70
IFN-γ in exudate (ELISA) [2]: 2879 ± 1267
IL-6 in exudate (ELISA) [2]: 3649 ± 1764
IL-10 in exudate (ELISA) [2]: 52.33 ± 11.60
TNF-α in exudate (ELISA) [2]: 71.31 ± 111.19
Leukocyte count in exudate [2]: 2.48e+08 mL⁻¹
Lymphocyte count in exudate [2]: 2.08e+08 mL⁻¹
Monocyte count in exudate [2]: 5e+06 mL⁻¹
Neutrophil count in exudate [2]: 2.2e+07 mL⁻¹
Exudate volume [2]: 3.60 ± 0.14 mL
Pouch Wall Weight [2]: 0.72 ± 0.09 g
Activity score [2]: 0.83
Edema Score [2]: 1.67
Fibroplastic proliferation score [2]: 0.00
Inflammation score [2]: 1.50
Sum (of histology scores) [2]: 4.00
Activity score [3]: 0.83
Edema Score [3]: 1.67
Fibroblast proliferation score [3]: 0.00
IFN-γ in exudate (ELISA) [3]: 2879 ± 1267
IL-6 in exudate (ELISA) [3]: 3649 ± 1764
IL-10 in exudate (ELISA) [3]: 52.33 ± 11.60
Inflammation score [3]: 1.50
Leukocyte count in exudate [3]: 2.48e+06 mL⁻¹
Lymphocyte count in exudate [3]: 2.08e+06 mL⁻¹
Monocyte count in exudate [3]: 50000 mL⁻¹
Neutrophil count in exudate [3]: 220000 mL⁻¹
Sum (of histology scores) [3]: 4.00
TNF-α in exudate (ELISA) [3]: 71.31 ± 111.19
Exudate volume [3]: 3.60 ± 0.14 mL
Pouch Wall Weight [3]: 0.72 ± 0.09 g

CC(C)(O)c1ccccc1CC[C@@H](SCC1(CC(=O)O)CC1)c1cccc(/C=C/c2ccc3ccc(Cl)cc3n2)c1 [Mon, Montelukast sodium]
Exudate volume ([1]; listed as Mon-O): 3.69 ± 0.14 mL
Pouch Wall Weight ([1]; listed as Mon-O): 0.68 ± 0.08 g
Exudate volume ([1]; listed as Mon-T): 3.54 ± 0.09 mL
Pouch Wall Weight ([1]; listed as Mon-T): 0.65 ± 0.06 g
Activity score ([1]; listed as Mon-O): 1.67
Edema Score ([1]; listed as Mon-O): 2.17
IFN-γ in exudate (ELISA) ([1]; listed as Mon-O): 557.95 ± 231.86
IL-6 in exudate (ELISA) ([1]; listed as Mon-O): 500.25 ± 292.84
Inflammation score ([1]; listed as Mon-O): 2.33
Leukocyte count in exudate ([1]; listed as Mon-O): 2.66e+06 mL⁻¹
Sum (of histology scores) ([1]; listed as Mon-O): 6.17
TNF-α in exudate (ELISA) ([1]; listed as Mon-O): 146.3 ± 70.74
Activity score ([1]; listed as Mon-T): 1.00
IFN-γ in exudate (ELISA) ([1]; listed as Mon-T): 568.19 ± 316.70
IL-6 in exudate (ELISA) ([1]; listed as Mon-T): 312.05 ± 189.23
Inflammation score ([1]; listed as Mon-T): 2.00
Leukocyte count in exudate ([1]; listed as Mon-T): 2.19e+06 mL⁻¹
TNF-α in exudate (ELISA) ([1]; listed as Mon-T): 80.37 ± 61.72
IFN-γ in exudate (ELISA) ([2]; listed as Mon (oral)): 2495 ± 711
IL-6 in exudate (ELISA) ([2]; listed as Mon (oral)): 8453 ± 9758
IL-10 in exudate (ELISA) ([2]; listed as Mon (oral)): 52.59 ± 7.22
TNF-α in exudate (ELISA) ([2]; listed as Mon (oral)): 39.41 ± 17.62
IFN-γ in exudate (ELISA) ([2]; listed as Mon (topical)): 1690 ± 725
IL-6 in exudate (ELISA) ([2]; listed as Mon (topical)): 2528 ± 1538
IL-10 in exudate (ELISA) ([2]; listed as Mon (topical)): 68.18 ± 15.81
TNF-α in exudate (ELISA) ([2]; listed as Mon (topical)): 90.73 ± 109.02
Exudate volume ([2]; listed as Mon (oral)): 3.58 ± 0.15 mL
Pouch Wall Weight ([2]; listed as Mon (oral)): 0.67 ± 0.10 g
Exudate volume ([2]; listed as Mon (topical)): 3.68 ± 0.15 mL
Pouch Wall Weight ([2]; listed as Mon (topical)): 0.66 ± 0.13 g
Leukocyte count in exudate ([2]; listed as Mon (oral)): 2.38e+08 mL⁻¹
Lymphocyte count in exudate ([2]; listed as Mon (oral)): 1.98e+08 mL⁻¹
Monocyte count in exudate ([2]; listed as Mon (oral)): 7e+06 mL⁻¹
Neutrophil count in exudate ([2]; listed as Mon (oral)): 2.1e+07 mL⁻¹
Leukocyte count in exudate ([2]; listed as Mon (topical)): 3.82e+08 mL⁻¹
Lymphocyte count in exudate ([2]; listed as Mon (topical)): 3.22e+08 mL⁻¹
Monocyte count in exudate ([2]; listed as Mon (topical)): 1.7e+07 mL⁻¹
Neutrophil count in exudate ([2]; listed as Mon (topical)): 2.9e+07 mL⁻¹
Activity score [2]: 1.00
Edema Score ([2]; listed as Mon (oral)): 1.00
Fibroplastic proliferation score ([2]; listed as Mon (oral)): 0.33
Sum (of histology scores) ([2]; listed as Mon (oral)): 4.17
Fibroplastic proliferation score ([2]; listed as Mon (topical)): 0.83
Inflammation score ([2]; listed as Mon (topical)): 2.17
Sum (of histology scores) ([2]; listed as Mon (topical)): 5.50
Activity score [3]: 1.00
Fibroblast proliferation score [3]: 0.83
Inflammation score [3]: 2.17
Leukocyte count in exudate [3]: 3.82e+06 mL⁻¹
Lymphocyte count in exudate [3]: 3.22e+06 mL⁻¹
Monocyte count in exudate [3]: 170000 mL⁻¹
Neutrophil count in exudate [3]: 290000 mL⁻¹
Sum (of histology scores) [3]: 5.50
Edema Score ([3]; listed as MON-O): 1.00
Fibroblast proliferation score ([3]; listed as MON-O): 0.33
Leukocyte count in exudate ([3]; listed as MON-O): 2.38e+06 mL⁻¹
Lymphocyte count in exudate ([3]; listed as MON-O): 1.98e+06 mL⁻¹
Monocyte count in exudate ([3]; listed as MON-O): 70000 mL⁻¹
Neutrophil count in exudate ([3]; listed as MON-O): 210000 mL⁻¹
Sum (of histology scores) ([3]; listed as MON-O): 4.17
IFN-γ in exudate (ELISA) ([3]; listed as Mon (oral)): 2495 ± 711
IL-6 in exudate (ELISA) ([3]; listed as Mon (oral)): 8453 ± 9758
IL-10 in exudate (ELISA) ([3]; listed as Mon (oral)): 52.59 ± 7.22
TNF-α in exudate (ELISA) ([3]; listed as Mon (oral)): 39.41 ± 17.62
IFN-γ in exudate (ELISA) ([3]; listed as Mon (topical)): 1690 ± 725
IL-6 in exudate (ELISA) ([3]; listed as Mon (topical)): 2528 ± 1538
IL-10 in exudate (ELISA) ([3]; listed as Mon (topical)): 68.18 ± 15.81
TNF-α in exudate (ELISA) ([3]; listed as Mon (topical)): 90.73 ± 109.02
Exudate volume [3]: 3.68 ± 0.15 mL
Pouch Wall Weight [3]: 0.66 ± 0.13 g
Exudate volume ([3]; listed as MON-O): 3.58 ± 0.15 mL
Pouch Wall Weight ([3]; listed as MON-O): 0.67 ± 0.10 g
